Reference: patent US20250197438A1, “IMMUNOREGULATORY AMIDE DERIVATIVE WITH IMPROVED MATERIAL PROPERTIES” (AEVIS BIO, INC., priority 2021, published 2025)
“Also recorded” adds a separate entry of the source.

Tests used:
[1] = Water solubility, stepwise addition of water, classed by USP23; format: physicochemical
Description: 3 mg of lenalidomide (Combi-Block, Inc. San Diego, CA, USA) and ribose-lenalidomide were each weighed and placed in a 1.5 mL Eppendorf tube, 0.03 mL of water was added thereto, and then the mixture was vortexed for one minute and then centrifuged at 15,000 rpm for 1 minute, and an undissolved compound was precipitated. When the precipitated compound was visible, 0.03 mL of water was added, and the above process was repeated.
The solubility was determined by Table 1 as defined in United States Pharmacopeia 23 (USP23).

multiple myeloma = details: combination of lenalidomide and dexamethasone; cited from earlier work
[2] = tested on: choroidal neovascularization lesion; experiment: Macular degeneration treatment effect, laser-induced mouse CNV model (wet AMD); format: in vivo; details: for CNV lesion, intravitreal administration: once immediately after laser irradiation, fluorescent staining of blood vessels
Description: It was intended to confirm the healing efficacy of a lesion in a mouse CNV model, which is a wet senile macular degeneration (wet AMD) model.
To this end, five C57BL/6 (Koatech, Korea) male mice (aged 7 weeks) were used, and after 1 week of acclimation, the 8-week-old mice were anesthetized using ketamine hydrochloride (100 mg/kg, I.P.), and a drop of Mydriacyl (tropicamide) eye drops was placed on the right eye to induce mydriasis. After 3 minutes, the mouse was placed on a stand attached to a slit lamp, and a coverslip was put on the right eye to serve as a contact lens. After illuminating the optic nerve head using the slip lamp, four laser spots (200 mW, 50 μm spot size, 100-ms duration) around the optic nerve head were irradiated using a 532 nm laser device (Irdiex Oculight Tx, USA) attached to the slit lamp.
After forming a choroidal neovascularization lesion as described above, a solution prepared by dissolving ribose-lenalidomide in PBS was administered to the lesion. For intravitreal administration, 1.5 μL of the solution with a concentration of 0.2 μg/mL was administered once immediately after laser irradiation using a 25 μL Hamilton syringe with a 33G needle. Meanwhile, ribose-lenalidomide was dissolved in PBS to have a concentration of 2 mg/mL, prepared in the form of eye drops, administered four times a day, and then 7 days or 14 days after administration, efficacy was confirmed through fluorescent staining of blood vessels.
Fluorescent staining was performed using Heidelberg Spectralis HRA+OCT device (Heidelberg, Germany) equipment, the mouse was anesthetized using ketamine hydrochloride (100 mg/kg, I.P.) and xylazine (10 mg/kg, I.P.), a drop of Mydriacyl (tropicamide) eye drops was placed on the right eye to induce mydriasis, 0.05 mL of 10% fluorescite (Alcon, USA) was administered via I.P. administration to stain blood vessels. Fluorescent images were taken 10 minutes after fluorescite injection.

CK1α = biological target: T1, CK1α (Homo sapiens, UniProt P48729+Q96SW2); experiment: CK1α degradation in MM.1S cells, western blot; format: cell-based; details: 1 μM or 10 μM, 24 hours
T1 construct: endogenous in cells; host or cells: MM.1S (ATCC CRL-2974)
Description: (§1) After seeding the cells and incubating the cells for 24 hours, each compound was further incubated for 24 hours after treatment with 1 μM or 10 μM of each compound. The cells were lysed in a RIPA buffer containing a protease inhibitor cocktail (Thermo Fisher Scientific) and centrifuged at 14,000 rpm for 15 minutes at 4° C., thereby obtaining a cell extract. The cell extract was loaded at the same amount, separated using SDS-PAGE, and transferred to a PVDF membrane. The protein-transferred membrane was blocked using skim milk, subjected to o/n incubation with a primary antibody at 4° C., and incubated with an HRP-attached secondary antibody at 4° C. for 1 hour. The cells were washed with TBS-T three times between steps. Detection was performed by applying a chemiluminescence reagent (Thermo Fisher Scientific), and confirmation was performed using Chemidoc (iBright CL1000, Invitrogen, CA, USA).

cereblon (CRBN) protein = biological target: T2, cereblon (CRBN) protein (Homo sapiens, UniProt Q96SW2); experiment: CRBN binding affinity, Alpha assay of competitive inhibition of CRBN-dBET1 binding; details: compared with the base lenalidomide or pomalidomide
T2 construct: FLAG; purchased BPS Bioscience #79770
Text: An immunomodulatory amide-type compound such as lenalidomide is known to act by binding to the cereblon (CRBN) protein. Therefore, the binding affinity of ribose-lenalidomide for the cereblon (CRBN) protein was compared with that of its base, lenalidomide (Combi-Block, Inc. San Diego, CA, USA), for the cereblon (CRBN) protein.

SALL4 = biological target: T3, SALL4 (Homo sapiens, UniProt Q96SW2+Q9UJQ4); experiment: SALL4 degradation in Tera-1 cell line (HTB-105), western blot; format: cell-based; details: 1 or 10 μM, compared with the base compound
T3 construct: endogenous in cells; host or cells: Tera-1 (ATCC HTB-105)
Description: The cell extract was loaded at the same amount, separated using SDS-PAGE, and transferred to a PVDF membrane. The protein-transferred membrane was blocked using skim milk, subjected to o/n incubation with a primary antibody at 4° C., and incubated with an HRP-attached secondary antibody at 4° C. for 1 hour. The cells were washed with TBS-T three times between steps. Detection was performed by applying a chemiluminescence reagent (Thermo Fisher Scientific), and confirmation was performed using Chemidoc (iBright CL1000, Invitrogen, CA, USA).

Aiolos = biological target: T4, Aiolos (Homo sapiens, UniProt Q96SW2+Q9UKT9); experiment: Aiolos degradation in MM.1S cells, western blot; format: cell-based; details: 1 μM or 10 μM, 24 hours
T4 construct: endogenous in cells; host or cells: MM.1S (ATCC CRL-2974)
Description: (§2) It is known that a thalidomide-based compound binds to an E3 ligase, cereblon (CRBN), and decomposes transcription factors Aiolos and Ikaros as substrates, thereby regulating the function of immune cells. Therefore, to confirm whether ribose-lenalidomide still maintains its immunomodulatory function, the Aiolos and Ikaros degradation effect was compared with its base, lenalidomide.
as §1

MM.1S cells = experiment: Tumor cell killing effect, CCK analysis; format: cell-based, human; details: 0 to 10 μM, 3 days, dissolved in DMSO or D.W.
Description: To this end, a human multiple myeloma cell line, MM.1S (CRL-2974), was purchased from the American Type Culture Collection (ATCC, Manassas, VA, USA), and incubated using a RPMI1640 medium (Corning, MD, USA) supplemented with a 10% bovine fetal serum (Corning, MD, USA), 100 U/mL penicillin (Corning, MD, USA), and 100 μg/mL streptomycin (Corning, MD, USA) at 37° C. in a 5% CO2 incubator for 24 hours. The cells were seeded at 1×10^4 cells/well in a 96-well plate, incubated for 24 hours, further incubated for 3 days after treatment with 0, 0.005, 0.014, 0.041, 0.123, 0.37, 1.111, 3.333, or 10 μM of ribose-lenalidomide dissolved in DMSO or D.W., and then analyzed using a CCK analysis kit (Dojindo, Japan) according to the manufacturer's instructions.

Ikaros = biological target: T5, Ikaros (Homo sapiens, UniProt Q13422+Q96SW2); experiment: Ikaros degradation in MM.1S cells, western blot; format: cell-based; details: 1 μM or 10 μM, 24 hours
T5 construct: endogenous in cells; host or cells: MM.1S (ATCC CRL-2974)
Description: as §2, §1

## Nc1cccc2c1CN(C1CCC(=O)NC1=O)C2=O (racemic) [lenalidomide, (RS)-3-(4-amino-1-oxo-1,3-dihydro-2H-isoindol-2-yl)piperidine-2,6-dione, reference compound]
[1]; D.W.
  water solubility in words: completely insoluble in water; also recorded: barely dissolved in D.W
Multiple myeloma
  disease-free survival period: 13.4 months
  overall survival period: 38 months

## O=C1CCC(N2Cc3c(/N=C/[C@H](O)[C@@H](O)[C@H](O)[C@H](O)CO)cccc3C2=O)C(=O)N1 (stereo partly drawn) [glucose-lenalidomide (type 1)]
[2]
  CNV lesion, intravitreal administration: macular degeneration treatment effect was confirmed

## O=C1CCC(N2Cc3c(/N=C/[C@H](O)[C@H](O)[C@H](O)CO)cccc3C2=O)C(=O)N1 (stereo partly drawn) [ribose-lenalidomide (type 1)]
[2]; eye drops 2 mg/mL in PBS, four times a day, 7 or 14 days
  CNV lesion, eye drop administration: distinct decrease in the lesion
[2]
  CNV lesion, intravitreal administration: distinct decrease in the lesion
CK1α
  CK1α degradation effect: almost similar to lenalidomide
[1]; water
  solubility term based on USP 23: freely soluble
[1]; water, thermodynamic from solid, D.W., no visible precipitate after vortexing and centrifugation
  solubility at 1 min: ≥ 100 mg/mL
Cereblon (CRBN) protein
  CRBN binding affinity: improved binding affinity
SALL4
  SALL4 degradation effect (teratogenic side effect): inhibited SALL4 degradation effect compared to lenalidomide
Aiolos
  Aiolos degradation effect: almost similar to lenalidomide
MM.1S cells
  tumor cell killing effect / viability of MM.1S cells: effective in killing MM.1S cells
Ikaros
  Ikaros degradation effect: almost similar to lenalidomide

## O=C1CCC(N2C(=O)c3cccc(NC[C@H](O)[C@@H](O)[C@H](O)[C@H](O)CO)c3C2=O)C(=O)N1 (stereo partly drawn) [glucose-pomalidomide (type 2)]
MM.1S cells
  tumor cell killing effect / viability of MM.1S cells: not significantly reduced
